One experiment has as its system HT-1080. Put plainly: Antiproliferative activity against human HT1080 cells after 4 days by MTT assay. The class given is functional. As to conditions: HT-1080, 96 h, read-out: ED50 (the source's name).
Experiment [1] can be described thus: Antiproliferative activity against mouse Colon 26-L5 cells after 4 days by MTT assay. The class given is functional. As to conditions: 96 h, read-out: ED50 (the source's name). (In general: Formazan colour is commonly taken as a measure of viable cells.)

Values after ≈ are worked out from the molar mass of the structure shown.

For `COc1ccc(-c2cc(=O)c3cc(OC)c(OC)c(OC)c3o2)cc1OC`, the EC50 in the experiment with HT-1080 came out at 74.8 µg/mL (≈ 201 µM); in experiment [1], 31.4 µg/mL (≈ 84.3 µM).

For `COc1cc(/C=C/C(=O)OCCc2ccc(O)cc2)ccc1O`, the EC50 was 47.1 µg/mL (≈ 150 µM) with HT-1080 and 33.7 µg/mL (≈ 107 µM) in experiment [1].

Consider `COc1ccc(-c2cc(=O)c3c(OC)c(OC)c(OC)cc3o2)cc1`, for which the values for the EC50 (in the experiment with HT-1080; in experiment [1]) were 4.5 µg/mL (≈ 13.1 µM) and 8.1 µg/mL (≈ 23.7 µM), respectively.

On to `COc1ccc(-c2cc(=O)c3c(O)c(OC)c(OC)cc3o2)cc1O` [EUPATORIN], for which the EC50 in the experiment on HT-1080 is 8.8 µg/mL (≈ 25.6 µM); in experiment [1], 3.7 µg/mL (≈ 10.7 µM).

As to `O=c1[nH]cc(F)c(=O)[nH]1` [FLUOROURACIL], the EC50 stood at 0.48 µg/mL (≈ 3.69 µM) in the experiment on HT-1080 and 0.015 µg/mL (≈ 0.115 µM) in experiment [1].

With `COc1ccc(-c2cc(=O)c3c(O)c(O)c(OC)cc3o2)cc1` [LADANEIN], the EC50 in the experiment with HT-1080 was 3 µg/mL (≈ 9.55 µM); in experiment [1] it was 2.3 µg/mL (≈ 7.32 µM).

Take `C=C[C@H]1[C@@H](OC(=O)c2ccccc2)[C@H]2[C@](O)(C(=O)[C@@]1(C)O)[C@H](OC(C)=O)C[C@H]1C(C)(C)[C@H](O)[C@H](OC(C)=O)[C@H](OC(=O)c3ccccc3)[C@@]12C` [NEOORTHOSIPHOL A]: the results for the EC50 (in the experiment on HT-1080; in experiment [1]) were 96.3 µg/mL (≈ 139 µM) and 38.8 µg/mL (≈ 56 µM), respectively.

Regarding `C=C/C(=C\[C@H]1C(=O)[C@H](OC(C)=O)C[C@H]2C(C)(C)[C@H](O)[C@H](OC(C)=O)[C@H](OC(=O)c3ccccc3)[C@]12C)C(C)=O` [NORSTAMINONE A], the EC50 with HT-1080 worked out at 23.2 µg/mL (≈ 42.9 µM); in experiment [1], 12.8 µg/mL (≈ 23.7 µM).

On to `C=C[C@@]1(C)C[C@@H](OC(=O)c2ccccc2)[C@H]2[C@](O)(C1=O)[C@H](OC(C)=O)C[C@H]1C(C)(C)[C@H](O)[C@H](OC(C)=O)[C@H](OC(=O)c3ccccc3)[C@@]12C` [ORTHOSIPHOL A], for which the EC50 is over 100 µg/mL with HT-1080 and 63.1 µg/mL (≈ 93.2 µM) in experiment [1].

In the case of `C=C[C@@]1(C)C[C@@H](OC(=O)c2ccccc2)[C@H]2[C@](O)(C1=O)[C@H](OC(C)=O)C[C@H]1C(C)(C)[C@H](OC(C)=O)[C@H](O)[C@H](OC(=O)c3ccccc3)[C@@]12C` [ORTHOSIPHOL B], the figures for the EC50 (with HT-1080; in experiment [1]) were 57.9 µg/mL (≈ 85.6 µM) and 28.1 µg/mL (≈ 41.5 µM), respectively.

As for `C=C[C@@]1(C)C[C@@H](OC(=O)c2ccccc2)[C@H]2[C@](O)(C1=O)[C@H](OC(C)=O)C[C@H]1C(C)(C)[C@H](O)[C@H](O)[C@H](OC(=O)c3ccccc3)[C@@]12C` [ORTHOSIPHOL K], the EC50 stood at 21.8 µg/mL (≈ 34.3 µM) with HT-1080 and 13.8 µg/mL (≈ 21.7 µM) in experiment [1].

Consider `C=C[C@]1(C)C(=O)[C@]2(O)[C@H](OC(C)=O)C[C@H]3C(C)(C)[C@H](O)[C@H](OC(C)=O)[C@H](OC(=O)c4ccccc4)[C@]3(C)[C@H]2[C@H](OC(=O)c2ccccc2)[C@@H]1O` [ORTHOSIPHOL L], for which the EC50 in the experiment with HT-1080 was 20.6 µg/mL (≈ 29.7 µM); in experiment [1] it was 24.7 µg/mL (≈ 35.7 µM).

Take `C=C[C@@]1(C)CC(=O)[C@H]2[C@](O)(C1=O)[C@H](OC(C)=O)C[C@H]1C(C)(C)[C@H](O)[C@H](OC(C)=O)[C@H](OC(=O)c3ccccc3)[C@@]12C` [ORTHOSIPHOL M]: the results for the EC50 (with HT-1080; in experiment [1]) were 81.7 µg/mL (≈ 143 µM) and 31.3 µg/mL (≈ 54.9 µM), respectively.

For `C=C[C@@]1(C)CC(=O)[C@H]2[C@](O)(C1=O)[C@H](O)C[C@H]1C(C)(C)[C@H](OC(=O)c3ccccc3)[C@H](OC(C)=O)[C@H](OC(=O)c3ccccc3)[C@@]12C` [ORTHOSIPHOL N], the EC50 in the experiment with HT-1080 turned out to be 18.6 µg/mL (≈ 29.4 µM); in experiment [1], 35.1 µg/mL (≈ 55.5 µM).

Values taken from ChEMBL document CHEMBL1150833, “Five novel highly oxygenated diterpenes of Orthosiphon stamineus from Myanmar” (2001).
